Key:
[1] = test system: differentiated white adipocytes; assay: RT-qPCR of markers after treating differentiated white adipocytes; type: cell-based, mouse; conditions: differentiated white adipocytes treated for 48 hours
Method: To differentiate into adipocytes, white adipose progenitor cells were cultured in growth media to reach 100% confluence for 1 day. The growth media was changed into basal induction medium (DMEM high glucose containing 10% FBS, 0.5 mM isobutylmethylxanthine, […] indomethacin, 2 μg/mL dexamethasone, 850 nM insulin, 1% penicillin/streptomycin). After 2-day induction, the media was changed to basal differentiation medium (DMEM high glucose containing 10% FBS, 850 nM insulin, 1% penicillin/streptomycin) and further incubated for 4-5 days. To differentiate beige adipocytes, fully confluent white adipose progenitor cells were incubated with the above induction medium supplemented with […] rosiglitazone and 1 nM T3 for 2 days and further differentiated in the basal differentiation medium supplemented with […] rosiglitazone and 1 nM T3 for 4-5 days.
(§1) Total RNA was isolated from tissue or cell culture using TRIzol. Total RNA (500 ng) from tissues or cell culture was used in 25 μL reverse transcription reactions (Maxima; Life technologies) and diluted into 250 μL. Diluted cDNA (2 μL) was used in quantitative PCR reactions (SsoAdvanced™ Universal SYBR Green mix; Bio-Rad) on a BioRad CFX384™ Real-Time PCR Detection System. Cq-values were determined and expression values were calculated by BioRad CFX Manager™ Software. Relative mRNA expression values were normalized to inner reference genes Rps18 and Tbp of each biological sample. For mitochondrial copy number qPCR, mitochondrial Cox2 gene was amplified and normalized to genomic β-globin gene.
In the above lentivirus-based primary/secondary screenings, sgRNA-mediated genome editing and consequent gene KO could occur either in proliferative adipose progenitor cells or fully-differentiated adipocytes. As such, Brd9 may function as a beige lineage repressor by either repressing the beige adipocyte lineage differentiation or the white-to-beige adipocyte conversion. To distinguish the above possibilities, white adipocytes were differentiated from white adipose progenitor cells under the basal differentiation condition and the differentiated white adipocytes were treated with BI-7273 for 48 hours. […] Therefore, BI-7273 likely induces the beige lineage determination and differentiation of white adipose progenitor cells by inhibiting BRD9.

[2] = test system: iWAT and eWAT of diet-induced obesity (DIO) mice; assay: Oral BI-7273 in DIO mice: WAT beiging, H/E, UCP1 IHC, RT-qPCR, mitochondrial copy number; type: in vivo, mouse; conditions: for mRNA levels of Ucp1, increase: vs control mice
Method: All animal studies were approved by the University of Georgia Institutional Animal Care and Use Committee (IACUC) and performed strictly following the guidelines Animals were housed in a temperature-controlled (22° C.) environment with 12:12-hrs light:dark cycle and allowed food and water […]. All mouse strains were purchased from the Jackson Laboratory: C57BL/6J: #000664; Ucp1-Cre: #024670; ROSA-INTACT: #021039. To generate diet-induced obesity and type 2 diabetes models, 8-week old C57BL/6J mice (both males and females) were fed with a high-fat diet (60% fat, Research Diet, catelog #D12492) for […]. To perform gavage feeding, animals were immobilized by hands and a gavage solution (0.5% Natrosol or 0.5% Natrosol containing BI-7273, […]) was administered through a 1 mL syringe equipped with a disposable gavage needle.
For histology, iWAT was excised from mice and fixed with 10% formalin, dehydrated and embedded in paraffin. The sliced tissue (5 μm) was stained with hematoxylin and eosin Y (Sigma Aldrich). Cell size was quantified by NIH ImageJ (ver 1.47t). Alternative sections were used for immunohistochemistry detection of UCP1 and H/E staining. Paraffin sections were antigen unmasked with Tris-EDTA buffer (10 mM Tris Base, 1 mM EDTA, 0.05% Tween 20, pH 9.0) in 93° C. for 15 min. Sections were blocked with blocking solution (10% normal goat serum and 1% BSA in PBS) for 1 hr at room temperature and incubated with the primary antibody (anti-UCP1, 1:200 diluted in blocking solution) overnight at 4° C. The endogenous peroxidase was quenched with 3% hydrogen peroxide. Sections were incubated with the secondary antibody for 1 hr at room temperature. Slides were developed with DAB (VectorLab) for 5 min followed with hemotoxylin conterstaining for 1 min. Color images were captured on a Leica DM4000B microscope equipped with a DFC450c camera.
as §1
[…]. The efficacy of BI-7273 in inducing beige adipocyte formation in vivo was tested within diet-induced obesity (DIO) and type 2 diabetes mouse models. To generate DIO models, adult C57BL/6 mice (8-week age, both males and females) were fed with a high-fat diet (HFD; 60% calories from fat) for 12 weeks. To administer BI-7273, BI-7273 mixed in 0.5% Natrosol (100 mg/kg/day, 200 uL) was gavaged for 14 days. For the control mice, 0.5% Natrosol in the same volume was gavaged during the same period. The high-fat diet was changed to the normal chow during gavaging to maximize the uptake of BI-7273. DIO models of control and BI-7273 treatment groups were euthanized after 14-day of gavaging and adipose tissues (iWAT and eWAT) were subjected to H/E staining and UCP1 immunohistochemistry (IHC) to identify beige adipocytes. […].

DIO mice = assay: Indirect calorimetry of DIO mice after oral BI-7273; type: in vivo, mouse
Method: Indirect calorimetry was performed on a Columbus Instruments CLAMS system equipped with 8 metabolic cages. Oxygen consumption (VO2; ml/min) and carbon dioxide production (VCO2; ml/min) were measured at 22° C. with 12-hr:12-hr dark:light cycles. Total energy expenditure was estimated using the equation published before […]). Data were normalized to the body weight of each animal. Physical activity is measured by counting infrared beam breaking events.
Next, whether oral administration of BI-7273 is sufficient to increase the whole-body energy expenditure was investigated. DIO models were gavaged with BI-7273 or control 0.5% Natrosol for 14 days as described above and later housed individually in metabolic cages for 10 days. […] HFD-fed control DIO models had very low respiratory exchange ratios (RER; ˜0.6 in light cycles and 0.72 in dark cycles), which is consistent with their high lipid utilization and insulin resistance (IR) states.

[3] = test system: acute myeloid leukemia (AML) cells; conditions: AML cells in vitro; cited from earlier work
AML xenograft model = conditions: cited from earlier work
[4] = in vivo; cited from earlier work
[5] = eWAT, 100 mg/kg/day gavage for 14 days
[6] = iWAT, 100 mg/kg/day gavage for 14 days
[7] = light and dark cycles, after 14-day gavage

SMILES: COc1cc(-c2cn(C)c(=O)c3cnccc23)cc(OC)c1CN(C)C [BI-7273, 4-[4-[(dimethylamino)methyl]-3,5-dimethoxyphenyl]-2-methyl-2,7-naphthyridin-1-one]
- Ucp1 mRNA increase [1]: 1.6 fold
- adipogenic markers (Pparg2, Leptin, Adiponectin, Fabp4) [1]: not affected
- mitochondrial markers (Ndufb2, Sdha, Uqcrc2, Cox8b, Atp5a1) increase [1]: 1.7-2.0 fold
- other beige lineage markers (Pgc1α, Cedia, Dio2, Elovl3) [1]: did not raise
- mRNA levels of Pgc1β, increase [2, 5]: 4.9 fold
- mRNA levels of Ucp1, increase [2, 5]: 6 fold
- Pgc1β expression ([2]; iBAT, limb muscles (TA, EDL), and liver): increased
- other beige adipocyte markers (Cedia, Dio2, Elovl3, Cox8b) ([2]; iWAT and eWAT, 100 mg/kg/day gavage for 14 days): increased
- overall size of adipocytes ([2]; iWAT and eWAT, 100 mg/kg/day gavage for 14 days, H/E): overtly reduced
- multiocular UCP1+pos beige adipocytes ([2]; iWAT and eWAT, 100 mg/kg/day gavage for 14 days, UCP1 IHC): induced the formation
- Pgc1α mRNA levels ([2]; iWAT or eWAT, 100 mg/kg/day gavage for 14 days): not affected
- mitochondrial genome copy number, higher than control DIO mice ([2]; iWAT, eWAT, iBAT, limb muscles, liver): 2.5-8.5 folds
- mRNA levels of Pgc1β, increase [2, 6]: 3.8 fold
- mRNA levels of Ucp1, increase [2, 6]: 22 fold
- respiratory exchange ratio (RER) (DIO mice; light and dark cycles): markedly increased
- oxygen consumption (VO2) (DIO mice; [7]): drastically increased
- total energy expenditure (E.E.) (DIO mice; [7]): drastically increased
- physical activity (DIO mice; vs control, light or dark cycles): comparable
- MYC expression [3]: suppress
- rapid cell proliferation [3]: suppress
- antitumor activity (AML xenograft model): antitumor activity
- bioavailability [4]: good and high

From patent US20210198629A1, “COMPOSITIONS AND METHODS FOR INCREASING BEIGING OF WHITE ADIPOSE TISSUE” (University of Georgia Research Foundation, Inc., priority 2018, published 2021)
